From patent EP4603105A1, “PHARMACEUTICAL COMPOSITION CONTAINING CYCLIC COMPOUND HAVING SELECTIVE KRAS INHIBITORY EFFECT AGAINST HRAS AND NRAS” (CHUGAI SEIYAKU KABUSHIKI KAISHA, priority 2022, dated 2024)
*1 amine or outer side, *2 acyl side, *3 side chain or, on linkers, in order; H or OH if unused. Where a SMILES comes first, the peptide text is derived from it. Bridges are numbered along the chain shown (N, C = ends). [ ]: non-standard residue; d: D form. The star is where a group is joined. hPhe(3,5-F2-4-CF3) = N[C@@H](CCc1cc(F)c(C(F)(F)F)c(F)c1)C(=O)O; hPhe(3-Cl-4-CF3) = N[C@@H](CCc1ccc(C(F)(F)F)c(Cl)c1)C(=O)O; X24 = CC(C)CN([C@@H](Cc1ccc(C(F)(F)F)cc1)C(=O)[*:2])[*:1]; NPrPhe(4-CF3) = CCCN[C@@H](Cc1ccc(C(F)(F)F)cc1)C(=O)O; NEtPhe(4-CF3) = CCN[C@@H](Cc1ccc(C(F)(F)F)cc1)C(=O)O; NEtPhe(4-Me) = CCN[C@@H](Cc1ccc(C)cc1)C(=O)O; NMeAbu(4,4,4-F3) = CN[C@@H](CC(F)(F)F)C(=O)O; NMeGly(cPent) = CN[C@H](C(=O)O)C1CCCC1; Pro(4,4-F2) = O=C(O)[C@@H]1CC(F)(F)CN1; Pro(4,4-Me2) = CC1(C)CN[C@H](C(=O)O)C1; NMeD = CN[C@@H](CC(=O)O)C(=O)O; NMeL = CN[C@@H](CC(C)C)C(=O)O; NMeAbu = CC[C@H](NC)C(=O)O; Ac6c = NC1(C(=O)O)CCCCC1; Morpholide = C1CN(*)CCO1; NMeA = CN[C@@H](C)C(=O)O; Ac5c = NC1(C(=O)O)CCCC1; Aze = O=C(O)[C@@H]1CCN1; Sar = CNCC(=O)O

Legend:
[1] = tested on: human lung cancer strain NCI-H441; type: cell-based
Outline: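 Step one: dispense the test compound in serial DMSO dilutions. Step three: add the reagent and measure […].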

[2] = molecular target: GDP-bound NRAS wild-type protein (Homo sapiens, UniProt P01111); assay: Binding to NRAS by surface plasmon resonance (SPR), KD and KD ratio to KRAS
GDP-bound NRAS wild-type protein, sequence (P01111 whole entry): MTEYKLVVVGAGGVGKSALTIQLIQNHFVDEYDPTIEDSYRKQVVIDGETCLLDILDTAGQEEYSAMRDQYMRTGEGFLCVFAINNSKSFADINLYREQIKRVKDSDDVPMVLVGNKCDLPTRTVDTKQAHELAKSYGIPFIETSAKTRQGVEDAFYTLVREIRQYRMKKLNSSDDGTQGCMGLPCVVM
Outline: (§1)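 Captured GDP-RAS (~100–300 RU) was exposed to increasing compound concentrations, 75 s per step, in running buffer with 10 µM GDP, 10 mM MgCl2 and 4% DMSO at pH 7.4.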

HRAS wild-type protein = HRAS wild-type protein (Homo sapiens, UniProt P01112); assay: Binding to HRAS by surface plasmon resonance (SPR), KD and KD ratio to KRAS
HRAS wild-type protein, sequence (P01112 whole entry): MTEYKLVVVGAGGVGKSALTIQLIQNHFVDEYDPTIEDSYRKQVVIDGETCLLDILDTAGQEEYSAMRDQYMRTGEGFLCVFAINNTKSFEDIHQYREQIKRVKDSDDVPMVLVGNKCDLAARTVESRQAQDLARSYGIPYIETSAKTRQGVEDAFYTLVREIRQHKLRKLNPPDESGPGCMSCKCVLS
Outline: as §1

[3] = ratio of KD for GDP-bound NRAS wild-type protein to KD for KRAS
[4] = ratio of KD for HRAS wild-type protein to KD for KRAS
[5] = ratio of KD value for GDP-bound NRAS wild-type protein to KD value for KRAS (SPR)
[6] = ratio of KD value for HRAS wild-type protein to KD value for KRAS (SPR)
[7] = ratio of the KD value with respect to GDP-bound NRAS wild-type protein to the KD value with respect to KRAS
[8] = ratio of the KD value with respect to HRAS wild-type protein to the KD value with respect to KRAS

| SMILES | IC50 [1] [nM] | NRAS /KRAS [2, 3] | HRAS /KRAS (HRAS wild-type protein; [4]) | NRAS /KRAS [2, 5] | HRAS /KRAS (HRAS wild-type protein; [6]) | NRAS /KRAS [2, 7] | HRAS /KRAS (HRAS wild-type protein; [8]) |
| --- | --- | --- | --- | --- | --- | --- | --- |
| CCCO[C@H]1CCN2C(=O)[C@H](CCc3cc(F)c(C(F)(F)F)c(F)c3)NC(=O)CN(C)C(=O)[C@H](Cc3ccc(C(F)(F)F)cc3)N3CCCCC[C@@H](C3=O)N(C)C(=O)CN(C)C(=O)[C@H]([C@@H](C)CC)NC(=O)[C@H](CC(C)C)N(C)C(=O)C[C@@H](C(=O)N3CCOCC3)N(C)C(=O)[C@H](C3CCCC3)N(C)C(=O)C3(CCC3)NC(=O)[C@H]12 [PP1069] | 127 | A (a compound having 10 or more and less than 20 is denoted as A) | B (a compound having 3 or more and less than 10 is denoted as B) |  |  |  |  |
| CC[C@H](C)[C@@H]1NC(=O)[C@H](CC2CCC2)N(C)C(=O)C[C@@H](C(=O)N(C)C)N(C)C(=O)[C@H](C2CCCC2)N(C)C(=O)C2(CCC2)N(C)C(=O)[C@@H]2CCCN2C(=O)[C@H](CCc2cc(F)c(C(F)(F)F)c(F)c2)NC(=O)CN(C)C(=O)[C@H](Cc2ccc(C)cc2)N2CC/C=C\C[C@@H](C2=O)N(C)C(=O)CN(C)C1=O [PP1802] | 5.8 |  |  | A (a compound having 10 or more and less than 20 is denoted as A) | B (a compound having 3 or more and less than 10 is denoted as B) |  |  |
| CCCN1C(=O)[C@@H]2CCN2C(=O)[C@H](C)N(C)C(=O)[C@H]([C@@H](C)CC)NC(=O)[C@H](CC)N(C)C(=O)C[C@@H](C(=O)N2CCOCC2)N(C)C(=O)[C@H](C2CCCC2)N(C)C(=O)C2(CCCC2)NC(=O)[C@@H]2CC(F)(F)CN2C(=O)[C@H](CCc2ccc(C(F)(F)F)c(Cl)c2)NC(=O)CN(C)C(=O)[C@@H]1Cc1ccc(C(F)(F)F)cc1 [PP0206] ([NMeAbu]I[NMeA][Aze][NPrPhe(4-CF3)][Sar][hPhe(3-Cl-4-CF3)][Pro(4,4-F2)][Ac5c][NMeGly(cPent)][NMeD]-Morpholide; lactam N-11) | 2.2 | C (A compound having a KD ratio of 0.1 or more and less than 3 is denoted as C) | B (a compound having 3 or more and less than 10 is denoted as B) |  |  |  |  |
| CCCN1C(=O)CN(C)C(=O)[C@@H]2CCN2C(=O)[C@H]([C@@H](C)CC)NC(=O)[C@H](CC(C)C)N(C)C(=O)C[C@@H](C(=O)N2CCOCC2)N(C)C(=O)[C@H](CC(F)(F)F)N(C)C(=O)C2(CCCC2)NC(=O)[C@@H]2CCCN2C(=O)[C@H](CCc2cc(F)c(C(F)(F)F)c(F)c2)NC(=O)CN(C)C(=O)[C@@H]1Cc1ccc(C(F)(F)F)cc1 [PP0784] ([NMeL]I[Aze][Sar][NPrPhe(4-CF3)][Sar][hPhe(3,5-F2-4-CF3)]P[Ac5c][NMeAbu(4,4,4-F3)][NMeD]-Morpholide; lactam N-11) | 447 | B (a compound having 3 or more and less than 10 is denoted as B) | B (a compound having 3 or more and less than 10 is denoted as B) |  |  |  |  |
| C=CC[C@H]1C(=O)N[C@@H]([C@@H](C)CC)C(=O)N(C)CC(=O)N(C)[C@H]2CCCCCN(C2=O)[C@@H](Cc2ccc(C(F)(F)F)cc2)C(=O)N(C)CC(=O)N[C@@H](CCc2cc(F)c(C(F)(F)F)c(F)c2)C(=O)N2C[C@H](OCC)C[C@H]2C(=O)NC2(CCC2)C(=O)N(C)[C@@H](C2CCCC2)C(=O)N(C)[C@H](C(=O)N(C)C)CC(=O)N1C [PP0665] | 15.6 |  |  |  |  | B (a compound having 3 or more and less than 10 is denoted as B) | B (a compound having 3 or more and less than 10 is denoted as B) |
| CCO[C@@H]1C[C@H]2C(=O)NC3(CC(C)(C)C3)C(=O)N(C)[C@@H](C3CCCC3)C(=O)N(C)[C@H](C(=O)N(C)CC)CC(=O)N(C)[C@@H](CC(F)F)C(=O)N[C@@H]([C@@H](C)CC)C(=O)N(C)CC(=O)N(C)[C@H]3C/C=C\CCN(C3=O)[C@@H](Cc3ccc(C(F)(F)F)cc3)C(=O)N(C)CC(=O)N[C@@H](CCc3ccc(C(F)(F)F)c(OC)c3)C(=O)N2C1 [PP1655] | 1.6 |  |  | A (a compound having 10 or more and less than 20 is denoted as A) | A (a compound having 10 or more and less than 20 is denoted as A) |  |  |
| CCC[C@H]1C(=O)N[C@@H]([C@@H](C)CC)C(=O)N(C)CC(=O)N(C)[C@H]2C/C=C\CCN(C2=O)[C@@H](CC2CCC(F)(F)CC2)C(=O)N(C)CC(=O)N[C@@H](CCc2ccc(C(F)(F)F)c(OC)c2)C(=O)N2C[C@H](OCC)C[C@H]2C(=O)N(C)C2(CCC2)C(=O)N(C)[C@@H](C(CC)CC)C(=O)N(C)[C@H](C(=O)N(C)C)CC(=O)N1C [PP2345] | 77.2 |  |  |  |  | A (a compound having 10 or more and less than 20 is denoted as A) | A (a compound having 10 or more and less than 20 is denoted as A) |
| CCC[C@@H]1C[C@H]2C(=O)NC3(CCC3)C(=O)N(C)[C@@H](C3CCCC3)C(=O)N(C)[C@H](C(=O)N(C)C)CC(=O)N(C)[C@@H](CCC)C(=O)N[C@@H]([C@@H](C)CC)C(=O)N(C)CC(=O)N(C)[C@H]3C/C=C\CCN(C3=O)[C@@H](Cc3ccc(C)cc3)C(=O)N(C)CC(=O)N[C@@H](CCc3ccc(C(F)(F)F)c(Cl)c3)C(=O)N2C1 [PP2238] | 39.3 |  |  |  |  | A (a compound having 10 or more and less than 20 is denoted as A) | A (a compound having 10 or more and less than 20 is denoted as A) |
| CC[C@H](C)[C@@H]1NC(=O)[C@H](C)N(C)C(=O)C[C@@H](C(=O)N2CCOCC2)N(C)C(=O)[C@H](C2CCCC2)N(C)C(=O)C2(CCCC2)NC(=O)[C@@H]2CCCN2C(=O)[C@H](CCc2ccc(C(F)(F)F)c(Cl)c2)NC(=O)CN(C)C(=O)[C@H](Cc2ccc(C)cc2)N(CC)C(=O)[C@@H]2CCN2C(=O)[C@H](C)N(C)C1=O [PP0007] ([NMeA]I[NMeA][Aze][NEtPhe(4-Me)][Sar][hPhe(3-Cl-4-CF3)]P[Ac5c][NMeGly(cPent)][NMeD]-Morpholide; lactam N-11) | 4.8 | C (A compound having a KD ratio of 0.1 or more and less than 3 is denoted as C) | C (A compound having a KD ratio of 0.1 or more and less than 3 is denoted as C) |  |  |  |  |
| CC[C@H](C)[C@@H]1NC(=O)[C@H](CC(C)C)N(C)C(=O)C[C@@H](C(=O)N2CCOCC2)N(C)C(=O)[C@H](C2CCCC2)N(C)C(=O)C2(CCCC2)NC(=O)[C@@H]2CCCN2C(=O)[C@H](CCc2ccc(C(F)(F)F)c(Cl)c2)NC(=O)CN(C)C(=O)[C@H](Cc2ccc(C(F)(F)F)cc2)N(CC(C)C)C(=O)CN(C)C(=O)CN(C)C1=O [PP0121] ([NMeL]I[Sar][Sar][X24][Sar][hPhe(3-Cl-4-CF3)]P[Ac5c][NMeGly(cPent)][NMeD]-Morpholide; lactam N-11) | 29.5 | C (A compound having a KD ratio of 0.1 or more and less than 3 is denoted as C) | C (A compound having a KD ratio of 0.1 or more and less than 3 is denoted as C) |  |  |  |  |
| CC[C@H](C)[C@@H]1NC(=O)[C@H](CC(C)C)N(C)C(=O)C[C@@H](C(=O)N2CCOCC2)N(C)C(=O)[C@H](C2CCCC2)N(C)C(=O)C2(CCCCC2)NC(=O)[C@@H]2CCCN2C(=O)[C@H](CCc2ccc(C(F)(F)F)c(Cl)c2)NC(=O)CN(C)C(=O)[C@H](Cc2ccc(C(F)(F)F)cc2)N(CC)C(=O)CN(C)C(=O)CN(C)C1=O [PP0236] ([NMeL]I[Sar][Sar][NEtPhe(4-CF3)][Sar][hPhe(3-Cl-4-CF3)]P[Ac6c][NMeGly(cPent)][NMeD]-Morpholide; lactam N-11) | 20.3 | B (a compound having 3 or more and less than 10 is denoted as B) | C (A compound having a KD ratio of 0.1 or more and less than 3 is denoted as C) |  |  |  |  |
| CCO[C@@H]1C[C@H]2C(=O)NC3(CC(C)(C)C3)C(=O)N(C)[C@@H](C(CC)CC)C(=O)N(C)[C@H](C3CCC3)CC(=O)N(C)[C@@H](CC3CC3)C(=O)N[C@@H]([C@@H](C)CC)C(=O)N(C)CC(=O)N(C)[C@H]3C/C=C\CCN(C3=O)[C@@H](Cc3ccc(C(F)(F)F)cc3)C(=O)N(C)CC(=O)N[C@@H](CCc3cc(F)c(C(F)(F)F)c(F)c3)C(=O)N2C1 [PP1634] | 144 |  |  | A (a compound having 10 or more and less than 20 is denoted as A) | A (a compound having 10 or more and less than 20 is denoted as A) |  |  |
| CCO[C@@H]1C[C@H]2C(=O)NC3(CCC3)C(=O)N(C)[C@@H](C3CCCC3)C(=O)N(C)[C@H](C(=O)N3CCOCC3)CC(=O)N(C)[C@@H](CC(C)C)C(=O)N[C@@H]([C@@H](C)CC)C(=O)N(C)CC(=O)N(C)[C@H]3CCCCCN(C3=O)[C@@H](Cc3ccc(F)c(Cl)c3)C(=O)N(C)CC(=O)N[C@@H](CCc3cc(F)c(C(F)(F)F)c(F)c3)C(=O)N2C1 [PP0919] | 110 | B (a compound having 3 or more and less than 10 is denoted as B) | B (a compound having 3 or more and less than 10 is denoted as B) |  |  |  |  |
| CCCN1C(=O)CN(C)C(=O)CNC(=O)[C@H]([C@@H](C)CC)NC(=O)[C@H](CC(C)C)N(C)C(=O)C[C@@H](C(=O)N2CCOCC2)N(C)C(=O)[C@H](C2CCCC2)N(C)C(=O)C2(CCCC2)NC(=O)[C@@H]2CC(C)(C)CN2C(=O)[C@H](CCc2ccc(C(F)(F)F)c(Cl)c2)NC(=O)CN(C)C(=O)[C@@H]1Cc1ccc(C(F)(F)F)cc1 [PP0448] ([NMeL]IG[Sar][NPrPhe(4-CF3)][Sar][hPhe(3-Cl-4-CF3)][Pro(4,4-Me2)][Ac5c][NMeGly(cPent)][NMeD]-Morpholide; lactam N-11) | 2 |  |  |  |  | B (a compound having 3 or more and less than 10 is denoted as B) | C (A compound having a KD ratio of 0.1 or more and less than 3 is denoted as C) |
